Experimental findings from PMC12655551, “Design, Synthesis, and Evaluation of Pyrrole-Based Selective MAO-B Inhibitors with Additional AChE Inhibitory and Neuroprotective Properties Identified via Virtual Screening” (Pharmaceuticals, 2025) are described below.

One test concerns the target T1, BChE (Equus caballus, UniProt P81908).
T1 construct: purchased Sigma-Aldrich, Hamburg, Germany; host or cells: equine serum
The test can be described thus: biochemical. Particulars: for IC50: means ± SD of three experiments, read-out: BChE IC50; for inhibition at 200 µM: read-out: Inhibition Activity 200 µM BChE. As for the experimental part:
(§1) AChE and BChE inhibitory activity of the newly synthesized pyrrole-based compounds was measured using the microplate assay described by Ellman et al. with the modifications added by López et al.. The compounds were tested at concentrations between 0.01 and 200 μM. First, they were dissolved in phosphate buffer (PBS) (8 mM K2HPO4, 2.3 mM NaH2PO4, 0.15 M NaCl, pH 7.5), assisted by the addition of no more than 5% MeOH. Then, they were serially diluted with PBS to provide the concentration range needed. Acetylcholinesterase from Electrophorus electricus and butyrylcholinesterase from equine serum (Sigma-Aldrich, Hamburg, Germany) were used with a substrate solution of 5,5′-dithiobis(2-nitrobenzoic acid) (DTNB) with acetylthiocholine iodide (ATCI) or butyrylthiocholine iodide (BTCI), respectively (0.04 M Na2HPO4, 0.2 mM DTNB, 0.24 mM ATCI or BTCI, pH 7.5). A total of 50 μL of AChE or BChE (0.25 U/mL, in PBS) and 50 μL of the tested compound solution were added to the wells. Incubation of the plates was performed at room temperature for 30 min. Then, 100 μL of substrate solution was added to start the enzymatic reaction. […] Enzyme activity was calculated as an inhibition percentage compared to an assay including buffer instead of an inhibitor.

The target in test [1] is T2, recombinant human MAO-B (hMAOB) (Homo sapiens, UniProt P27338).
T2 sequence (P27338 1-520): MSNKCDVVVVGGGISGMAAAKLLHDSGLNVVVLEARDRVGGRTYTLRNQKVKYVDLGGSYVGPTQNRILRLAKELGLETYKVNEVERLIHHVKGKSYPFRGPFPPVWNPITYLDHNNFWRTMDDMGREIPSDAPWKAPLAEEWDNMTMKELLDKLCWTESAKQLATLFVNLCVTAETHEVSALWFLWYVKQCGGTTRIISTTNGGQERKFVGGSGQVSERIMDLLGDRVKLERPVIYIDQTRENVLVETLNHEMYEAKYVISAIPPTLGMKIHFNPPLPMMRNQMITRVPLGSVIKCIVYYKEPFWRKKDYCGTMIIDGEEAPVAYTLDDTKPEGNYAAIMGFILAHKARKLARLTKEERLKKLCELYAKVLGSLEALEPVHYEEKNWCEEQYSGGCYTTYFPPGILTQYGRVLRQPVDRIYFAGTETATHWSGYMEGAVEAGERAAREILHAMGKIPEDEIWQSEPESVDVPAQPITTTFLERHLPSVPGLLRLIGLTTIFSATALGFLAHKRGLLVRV
The experiment in a line: biochemical. Format: biochemical. Particulars: for inhibition at 1 µM: 1 µM compound; for IC50 / MAO-B IC50: means ± SD of three experiments. The procedure: (§2) Monoamine oxidase (MAO) activity for both recombinant human MAO-A (hMAOA) and MAO-B (hMAOB) was assessed using a fluorometric assay based on the Amplex® UltraRed reagent. This method, originally reported by Bautista-Aguilera et al. and later adapted with minor changes by Kasabova-Angelova et al., detects hydrogen peroxide or peroxidase activity present in enzymes or biological samples. In this assay, Amplex® Red reacts in a 1:1 molar ratio with hydrogen peroxide in the presence of peroxidase, producing the red-fluorescent compound resorufin. Due to resorufin’s strong extinction coefficient (58,000 ± 5000 cm^−1·M^−1), measurements could be accurately taken using either fluorometric or spectrophotometric methods. […] The control conditions included the use of purified hMAOA or hMAOB in reaction buffer, enzyme solutions with hydrogen peroxide, and buffer alone. All the test compounds were initially prepared at a 1 µM final concentration. These compounds were combined with either hMAOA or hMAOB and loaded into a 96-well plate (with eight replicates per test compound), followed by incubation for 30 min at 37 °C in the dark. Subsequently, a 50 µL detection mix was added to each well. This mix contained Amplex® Red, horseradish peroxidase (HRP), and tyramine substrate, all prepared in a reaction buffer. As this enzymatic reaction proceeded continuously, the fluorescence signal was recorded every 30 min (at 0, 30, 60, 90, 120, and 150 min) to track enzymatic kinetics.

Another test has as its target T3, AChE (Electrophorus electricus, UniProt O42275).
T3 construct: purchased Sigma-Aldrich, Hamburg, Germany
The experiment in a line: biochemical. Format: biochemical. To be noted: for inhibition at 200 µM: 200 µM compound; for IC50: means ± SD of three experiments. The procedure: as §1

Test [2] concerns the target T4, recombinant human MAO-A (hMAOA) (Homo sapiens, UniProt P21397).
T4 sequence (P21397 1-527): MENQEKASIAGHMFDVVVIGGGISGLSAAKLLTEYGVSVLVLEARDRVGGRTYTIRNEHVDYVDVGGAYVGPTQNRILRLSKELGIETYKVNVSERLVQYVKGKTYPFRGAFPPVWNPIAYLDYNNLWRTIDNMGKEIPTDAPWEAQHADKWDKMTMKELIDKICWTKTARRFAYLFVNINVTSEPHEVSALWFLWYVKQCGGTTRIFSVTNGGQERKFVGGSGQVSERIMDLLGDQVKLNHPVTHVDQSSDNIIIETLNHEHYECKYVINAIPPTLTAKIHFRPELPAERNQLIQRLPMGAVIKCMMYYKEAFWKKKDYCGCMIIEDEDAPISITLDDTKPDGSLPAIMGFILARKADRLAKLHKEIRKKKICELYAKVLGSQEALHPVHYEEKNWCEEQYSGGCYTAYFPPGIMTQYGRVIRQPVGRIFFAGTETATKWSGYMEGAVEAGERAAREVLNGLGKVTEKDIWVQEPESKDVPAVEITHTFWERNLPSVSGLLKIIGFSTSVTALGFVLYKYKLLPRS
The experiment in a line: MAO-A inhibition, fluorometric Amplex UltraRed assay. The test is classed as biochemical. To be noted: for inhibition at 1 µM: 1 µM compound, read-out: Inhibition Activity 1 µM MAO-A; for IC50: means ± SD of three experiments, read-out: MAO-A IC50. The procedure: as §2

T1 sequence (P81908 whole entry): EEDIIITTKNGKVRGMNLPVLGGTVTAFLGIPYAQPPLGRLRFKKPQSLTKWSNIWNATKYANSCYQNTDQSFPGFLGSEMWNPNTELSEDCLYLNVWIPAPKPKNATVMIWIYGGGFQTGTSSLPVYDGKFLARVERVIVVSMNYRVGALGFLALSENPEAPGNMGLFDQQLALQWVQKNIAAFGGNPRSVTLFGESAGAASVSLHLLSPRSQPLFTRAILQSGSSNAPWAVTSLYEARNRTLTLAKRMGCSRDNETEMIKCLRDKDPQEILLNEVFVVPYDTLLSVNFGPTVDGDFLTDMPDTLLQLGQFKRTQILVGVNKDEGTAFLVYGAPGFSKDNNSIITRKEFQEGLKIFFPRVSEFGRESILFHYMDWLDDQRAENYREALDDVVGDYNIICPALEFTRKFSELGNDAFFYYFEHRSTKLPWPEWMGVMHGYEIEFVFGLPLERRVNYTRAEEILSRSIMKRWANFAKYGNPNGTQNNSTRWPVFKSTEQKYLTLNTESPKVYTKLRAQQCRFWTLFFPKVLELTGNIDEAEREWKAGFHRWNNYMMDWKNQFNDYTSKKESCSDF
T3 sequence (O42275 24-633): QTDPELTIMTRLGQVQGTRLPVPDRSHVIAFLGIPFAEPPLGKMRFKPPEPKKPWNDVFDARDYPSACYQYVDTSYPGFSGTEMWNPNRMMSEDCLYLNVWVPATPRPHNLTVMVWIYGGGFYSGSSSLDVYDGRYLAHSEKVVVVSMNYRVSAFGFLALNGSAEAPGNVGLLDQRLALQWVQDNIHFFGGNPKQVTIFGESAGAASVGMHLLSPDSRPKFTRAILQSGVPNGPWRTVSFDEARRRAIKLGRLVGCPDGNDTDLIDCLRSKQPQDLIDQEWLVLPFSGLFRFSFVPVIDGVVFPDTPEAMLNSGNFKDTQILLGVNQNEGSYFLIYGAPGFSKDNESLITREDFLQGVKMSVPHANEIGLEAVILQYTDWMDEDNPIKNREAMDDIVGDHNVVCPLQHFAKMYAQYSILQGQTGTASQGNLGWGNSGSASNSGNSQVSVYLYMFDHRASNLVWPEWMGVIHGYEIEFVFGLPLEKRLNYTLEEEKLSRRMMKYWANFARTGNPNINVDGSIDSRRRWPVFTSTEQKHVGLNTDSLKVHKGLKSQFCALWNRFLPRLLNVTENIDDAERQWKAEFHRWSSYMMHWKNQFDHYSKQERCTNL

Consider `Cc1ccc(C)n1-c1ccc2c(c1)OCO2` [EM-DC-6, 1-(2H-1,3-benzodioxol-5-yl)-2,5-dimethyl-1H-pyrrole], for which the IC50 on BChE is more than 200 µM; in test [1], more than 100 µM; at AChE it was 128 ± 1.87 µM; in test [2], more than 100 µM. Also, the inhibition at 200 µM on BChE turned out to be 36.3 ± 3.54%; on AChE, 65 ± 1.14%. For the same compound, the inhibition at 1 µM in test [1] was found to be 98 ± 7.1%; in test [2] it was 97 ± 7.1%.
In the case of `Cc1ccc(C)n1-c1ccc(O)cc1` [EM-DC-1, 4-(2,5-dimethyl-1H-pyrrol-1-yl)phenol], the IC50 on BChE was 173 ± 7.3 µM; in test [1], more than 100 µM; on AChE it was more than 200 µM; in test [2], 0.32 ± 0.1 µM. Further, the inhibition at 200 µM is 53.9 ± 2.14% at BChE and 7.52 ± 2.07% on AChE. The inhibition at 1 µM in test [1] was 99 ± 7.1%; in test [2], 55 ± 7.1%.
Regarding `Cc1ccc(C)n1-c1ccncc1` [EM-DC-12, 4-(2,5-dimethyl-1H-pyrrol-1-yl)pyridine], on BChE, the half-inhibitory concentration (IC50) turned out to be 72.8 ± 2.53 µM and the inhibition at 200 µM turned out to be 73.2 ± 1.8%. For the same compound, in test [1], the inhibition at 1 µM amounted to 70 ± 7.1%, the IC50 amounted to 0.51 ± 0.1 µM and the “MAO-B IC50” value is reported as “submicromolar range”. Also, on AChE, at 200 µM the inhibition was 65.7 ± 3.25% and the midpoint of inhibition, the IC50, lay at 103 ± 5.85 µM. Besides, in test [2], the inhibition at 1 µM was found to be 70 ± 6.9% and the IC50 came out at 0.49 ± 0.1 µM.
Turning to `CCC(C(=O)O)n1c(C)ccc1C` (centres unmarked) [EM-DC-21, 2-(2,5-dimethyl-1H-pyrrol-1-yl)butanoic acid], the IC50 is more than 200 µM on BChE, more than 100 µM in test [1], more than 200 µM at AChE and more than 100 µM in test [2]. The inhibition at 200 µM at BChE and against AChE was 0% each time. Also, the inhibition at 1 µM in test [1] and in test [2] was 99 ± 7.1% in each case.
Consider `Cc1cc(-n2c(C)ccc2C)c2ccccc2n1` [EM-DC-13, 4-(2,5-dimethyl-1H-pyrrol-1-yl)-2-methylquinoline], for which the IC50 was 10.5 ± 0.17 µM at BChE, 0.41 ± 0.1 µM in test [1], 3.81 ± 0.26 µM at AChE and 0.38 ± 0.1 µM in test [2]. Further, the inhibition at 200 µM on BChE was 83.81 ± 0.67%; at AChE, 91.2 ± 1.22%. Also, the inhibition at 1 µM in test [1] and in test [2] was 80 ± 7.1% each time.
As to `Cc1ccc(C)n1CCc1ccccc1` [EM-DC-7, 2,5-dimethyl-1-(2-phenylethyl)-1H-pyrrole], on BChE, the IC50 was more than 200 µM and the inhibition at 200 µM was found to be 43.9 ± 1.7%. In addition, in test [1], the inhibition at 1 µM was 75 ± 7.1%, the concentration for half-maximal inhibition (IC50) was 0.49 ± 0.1 µM and the “MAO-B IC50” value is “submicromolar range”. On AChE, this compound returned an inhibition at 200 µM of 11.9 ± 2.33% and an IC50 of more than 200 µM. Also, in test [2], the inhibition at 1 µM was found to be 80 ± 7.2% and the IC50 stood at 0.51 ± 0.1 µM.
In the case of `Cc1ccc(C)n1-c1ccc(C(=O)O)cc1` [EM-DC-2, 4-(2,5-dimethyl-1H-pyrrol-1-yl)benzoic acid], the IC50 amounted to 158 ± 11.8 µM at BChE, 0.75 ± 0.06 µM at AChE and 0.43 ± 0.1 µM in test [2]. Further, the inhibition at 200 µM on BChE was found to be 57.2 ± 0.58%; on AChE, 93.6 ± 4.66%. For the same compound, the inhibition at 1 µM in test [1] amounted to 75 ± 7.1%; in test [2] it was 75 ± 6.9%.
For the compound `COc1ccc(C)cc1-n1c(C)ccc1C` [EM-DC-5, 1-(2-methoxy-5-methylphenyl)-2,5-dimethyl-1H-pyrrole], the IC50 at BChE is 73.8 ± 5.96 µM; in test [1], more than 100 µM; at AChE, more than 200 µM; in test [2], more than 100 µM. Further, the inhibition at 200 µM was 74 ± 1.56% at BChE and 39.8 ± 2.64% against AChE. Besides, the results for the inhibition at 1 µM in test [1] and in test [2] were 99 ± 7.1% and 98 ± 7.3%, respectively.
For `Cc1ccc(C)n1C(CS)C(=O)O` (centres unmarked) [EM-DC-15, 2-(2,5-dimethyl-1H-pyrrol-1-yl)-3-sulfanylpropanoic acid], the IC50 on BChE was more than 200 µM; in test [1], 0.53 ± 0.1 µM; against AChE, 131 ± 1.85 µM; in test [2] it was 0.55 ± 0.1 µM. For the same compound, the inhibition at 200 µM on BChE was determined as 19.1 ± 2.47%; against AChE it was 63.9 ± 1.29%. For the same compound, the inhibition at 1 µM in test [1] turned out to be 70 ± 7.1%; in test [2], 70 ± 7.2%.
`Cc1ccc(C)n1-c1ccc(C(=O)O)cc1O` [EM-DC-17, 4-(2,5-dimethyl-1H-pyrrol-1-yl)-3-hydroxybenzoic acid]: the IC50 on BChE was more than 200 µM; in test [1] it was more than 100 µM; on AChE, more than 200 µM; in test [2], more than 100 µM. For the same compound, the inhibition at 200 µM came to 3.85 ± 2.99% at BChE and 0% on AChE. Further, the inhibition at 1 µM in test [1] was 99 ± 7.1%; in test [2], 99 ± 6.6%.
`Cc1ccc(C)n1C(C)(C)CO` [EM-DC-14, 2-(2,5-dimethyl-1H-pyrrol-1-yl)-2-methylpropan-1-ol]: the IC50 is more than 200 µM on BChE, 0.46 ± 0.1 µM in test [1], more than 200 µM against AChE and 0.44 ± 0.1 µM in test [2]. Further, the inhibition at 200 µM is 0% at BChE and 33.2 ± 2.03% on AChE. The inhibition at 1 µM in test [1] and in test [2] was 75 ± 7.1% throughout.
As for `Cc1ccc(C)n1CC(O)c1ccc(O)cc1` (centres unmarked) [EM-DC-10, 4-[2-(2,5-dimethyl-1H-pyrrol-1-yl)-1-hydroxyethyl]phenol], the concentration for half-maximal inhibition (IC50) at BChE is 11.3 ± 0.87 µM; in test [1] it was more than 100 µM; against AChE it was 148 ± 5.91 µM; in test [2], more than 100 µM. The results for the inhibition at 200 µM at BChE and against AChE were 87.2 ± 1.6% and 60.4 ± 1.05%, respectively. In addition, the values for the inhibition at 1 µM in test [1] and in test [2] were 99 ± 7.1% and 99 ± 6.8%, respectively.
As to `Cc1ccc(C)n1CCc1ccc(O)cc1` [EM-DC-9, 4-[2-(2,5-dimethyl-1H-pyrrol-1-yl)ethyl]phenol], the IC50 at BChE was 69.5 ± 7.52 µM; in test [1] it was more than 100 µM; against AChE it was 76.8 ± 4.68 µM; in test [2] it was more than 100 µM. For the same compound, the inhibition at 200 µM at BChE was 73.7 ± 4.5%; against AChE it was 72.9 ± 3.02%. Moreover, the inhibition at 1 µM in test [1] was 98 ± 7.1%; in test [2], 98 ± 6.8%.
As for `COc1cc2c(cc1OC)C(=O)C(CC1CCN(Cc3ccccc3)CC1)C2` (centres unmarked) [Donepezil, reference compound], the inhibition at 200 µM on BChE is 92.25 ± 0.22%.
On the same count and under the same terms, for `COc1ccc2c3c1O[C@H]1C[C@@H](O)C=C[C@@]31CCN(C)C2` [Galanthamine, reference compound] the value was 89.16 ± 0.44%.
